Measured values reported in ChEMBL document CHEMBL4699402, “Identification of N-benzothiazolyl-2-benzenesulfonamides as novel ABCA1 expression upregulators” (RSC Med Chem, 2020).
The source made the active and inactive calls. The rule behind the calls is not given here.

Tests used:
[1] = Upregulation of ABCA1 expression in human HepG2 cells expressing luciferase plasmid incubated for 24 hrs by luciferase reporter gene assay; format: functional, cell-based; conditions: HepG2, 24 h
[2] = Upregulation of ABCA1 expression in human HepG2 cells expressing luciferase plasmid assessed as maximal increase incubated for 24 hrs by luciferase reporter gene assay relative to control; format: functional
[3] = test system: HepG2; assay: Cytotoxicity against human HepG2 cells assessed as reduction in cell viability incubated for 72 hrs measured by CCK8 assay; format: cell-based; conditions: hepg2, 72 h
[4] = Potency index, ration of WY06 EC50 to test compound EC50 for upregulation of ABCA1 expression in human HepG2 cells expressing luciferase plasmid incubated for 24 hrs by luciferase reporter gene assay; format: functional
[5] = test system: RAW264.7; assay: Upregulation of ABCA1 mRNA expression in mouse RAW264.7 cells at 5 uM incubated for 24 hrs by RT-qPCR analysis; format: functional, cell-based
[6] = test system: RAW264.7; assay: Upregulation of ABCA1 protein expression in mouse RAW264.7 cells incubated for 24 hrs by western blot analysis; format: functional, cell-based; conditions: dose microM 2.5-10, time 24.0 hrs
[7] = Upregulation of ABCA1 expression in human HepG2 cells expressing luciferase plasmid assessed as maximal fold increase incubated for 24 hrs by luciferase reporter gene assay relative to control; format: functional
[8] = test system: HepG2; assay: Upregulation of ABCA1 expression in human HepG2 cells expressing luciferase plasmid incubated for 24 to 48 hrs by luciferase reporter gene assay; format: functional, cell-based; conditions: dose microM 0.78-50, time hrs 24-48
[9] = Upregulation of ABCA1 protein expression in mouse RAW264.7 cells assessed as maximal increase at 10 uM incubated for 24 hrs by western blot analysis relative to control; format: functional
[10] = Upregulation of ABCA1 mRNA expression in mouse RAW264.7 cells assessed as maximal upregulation at 10 uM incubated for 24 hrs by RT-qPCR analysis relative to control; format: functional
[11] = test system: RAW264.7; assay: Upregulation of ApoA-I protein expression in mouse RAW264.7 cells at 2.5 to 10 uM by western blot analysis; format: functional, cell-based; conditions: dose microM 2.5-10
[12] = test system: RAW264.7; assay: Induction of cholesterol efflux in mouse RAW264.7 cells assessed as decrease in cellular 22-NBD-cholesterol content at 2.5 to 10 uM incubated for 24 hrs by DAPI staining based fluorescence analysis; format: functional, cell-based; conditions: dose microM 2.5-10, time 24.0 hrs
[13] = test system: RAW264.7; assay: Upregulation of ABCA1 protein expression in mouse RAW264.7 cells at 2.5 to 10 uM incubated for 24 hrs by western blot analysis; format: functional, cell-based; conditions: dose microM 2.5-10, time 24.0 hrs
[14] = test system: RAW264.7; assay: Upregulation of ABCA1 mRNA expression in mouse RAW264.7 cells at 2.5 to 10 uM incubated for 24 hrs by RT-qPCR analysis; format: functional, cell-based; conditions: dose microM 2.5-10, time 24.0 hrs
[15] = Upregulation of ABCA1 mRNA expression in mouse RAW264.7 cells assessed as maximal fold increase at 5 uM incubated for 24 hrs by RT-qPCR analysis relative to control; format: functional

C=CCN(c1nc2ccccc2s1)S(=O)(=O)c1cccc(N)c1
EC50 [1]: > 50 µM | Activity [2]: 136%

C=CCN(c1nc2ccc(F)cc2s1)S(=O)(=O)c1ccc(N)cc1
EC50 [1]: 7.4 µM | Activity [2]: 135%

C=CCN(c1nc2ccc(Cl)cc2s1)S(=O)(=O)c1ccc(N)cc1
EC50 [1]: 10.6 µM | Activity [2]: 135%

N#CCN(c1nc2ccccc2s1)S(=O)(=O)c1cccc(N)c1
EC50 [1]: > 50 µM | Activity [2]: 124%

C=CCN(c1nc2ccccc2s1)S(=O)(=O)c1ccc(N)cc1
EC50 [1]: 33.4 µM | Activity [2]: 115%

CCOC(=O)CN(c1nc2ccc(Cl)cc2s1)S(=O)(=O)c1ccc(N)cc1
Activity [3]: Non-Toxic | EC50 [1]: 0.37 µM | Ratio EC50 [4]: >=15 | Activity [2]: 174% | Activity [5]: Active | Activity [6]: Dose-dependent effect | fold change (FC) [7]: 1.74

N#CCN(c1nc2ccc(Cl)cc2s1)S(=O)(=O)c1ccc(N)cc1
Activity [8]: Dose-dependent effect | Activity [3]: Non-Toxic | EC50 [1]: 0.41 µM | Activity [9]: 240% | Activity [10]: 210% | Ratio EC50 [4]: >15 | Activity [11]: inactive | Activity [2]: 206% | Activity [6]: Dose-dependent effect | Activity [12]: Active

CCOC(=O)CN(c1nc2ccccc2s1)S(=O)(=O)c1ccc(N)cc1
Activity [3]: Non-Toxic | EC50 [1]: 1.24 µM | Activity [2]: 209%

C=CCN(c1nc2ccc(F)cc2s1)S(=O)(=O)c1cccc(N)c1
EC50 [1]: 26 µM | Activity [2]: 152%

CCOC(=O)CN(c1nc2ccc(OC)cc2s1)S(=O)(=O)c1ccc(N)cc1
Activity [3]: Non-Toxic | EC50 [1]: 6.38 µM | Activity [2]: 138% | fold change (FC) [7]: 1.38 | Activity [13]: inactive | Activity [14]: inactive

CCOC(=O)CN(c1nc2ccc(F)cc2s1)S(=O)(=O)c1ccc(N)cc1
Activity [3]: Non-Toxic | EC50 [1]: 0.97 µM | Activity [2]: 167%

N#CCN(c1nc2ccccc2s1)S(=O)(=O)c1ccc(N)cc1
EC50 [1]: 8.51 µM | Activity [2]: 157%

N#CCN(c1nc2ccc(F)cc2s1)S(=O)(=O)c1ccc(N)cc1
EC50 [1]: 2.57 µM | Activity [2]: 163%

N#CCN(c1nc2ccc(Cl)cc2s1)S(=O)(=O)c1cccc(N)c1
Activity [3]: Non-Toxic | EC50 [1]: 5.84 µM | fold change (FC) [15]: 1.5 | Activity [2]: 168% | Activity [6]: Dose-dependent effect | fold change (FC) [7]: 1.68
